In patent US20100087477A1, “SELECTIVE GLYCOSIDASE INHIBITORS” (priority 2006, published 2010):
Like-named read-outs stand apart in the source and are kept apart here.

Tests used:
OGA = biological target: T1, OGA (Homo sapiens, UniProt O60502); conditions: background, literature; cited from earlier work
T1 sequence (O60502 1-916): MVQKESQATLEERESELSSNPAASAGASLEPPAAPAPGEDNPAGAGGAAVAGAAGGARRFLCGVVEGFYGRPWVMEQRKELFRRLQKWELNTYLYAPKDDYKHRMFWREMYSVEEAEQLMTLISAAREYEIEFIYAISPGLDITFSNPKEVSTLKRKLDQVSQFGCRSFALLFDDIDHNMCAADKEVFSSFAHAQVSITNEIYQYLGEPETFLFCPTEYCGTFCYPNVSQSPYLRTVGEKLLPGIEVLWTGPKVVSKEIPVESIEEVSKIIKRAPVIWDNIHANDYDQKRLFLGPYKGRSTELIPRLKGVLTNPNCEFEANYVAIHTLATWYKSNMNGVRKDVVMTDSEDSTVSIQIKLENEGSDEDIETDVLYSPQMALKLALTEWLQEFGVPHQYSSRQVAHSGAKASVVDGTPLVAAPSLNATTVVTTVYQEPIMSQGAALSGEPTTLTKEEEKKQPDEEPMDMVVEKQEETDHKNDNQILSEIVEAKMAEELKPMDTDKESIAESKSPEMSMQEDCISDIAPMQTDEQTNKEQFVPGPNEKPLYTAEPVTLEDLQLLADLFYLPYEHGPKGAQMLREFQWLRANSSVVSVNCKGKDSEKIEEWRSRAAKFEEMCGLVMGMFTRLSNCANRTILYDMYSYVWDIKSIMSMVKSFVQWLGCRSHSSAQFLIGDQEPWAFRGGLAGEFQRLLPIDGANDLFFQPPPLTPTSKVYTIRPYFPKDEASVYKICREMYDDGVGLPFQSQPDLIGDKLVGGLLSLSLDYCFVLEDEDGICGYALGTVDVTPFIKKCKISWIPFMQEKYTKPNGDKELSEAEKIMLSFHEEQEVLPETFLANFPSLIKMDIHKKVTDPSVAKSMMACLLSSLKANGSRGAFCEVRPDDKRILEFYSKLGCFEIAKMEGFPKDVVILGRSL

[1] = biological target: bacterial O-GlcNAcase (bOGA) (NagJ from Clostridium perfringens) (Clostridium perfringens, UniProt Q8XL08); test: biochemical; design: Ratio a/b: reference not given here
[2] = biological target: mixture of the human placental hexosaminidases HexA/HexB; test: Steady state kinetics of hexosaminidases A and B with 4MU-GlcNAc; format: biochemical
bOGA = bOGA (Clostridium perfringens, UniProt Q8XL08); format: biochemical
human OGA (hOGA) = biological target: T2, human OGA (hOGA) (Homo sapiens, UniProt O60502); test: Inhibition of human OGA (hOGA), methodology similar to bOGA; format: biochemical
T2 sequence (O60502 1-916): T1 sequence (O60502 1-916)

HEK 293 cells = test: Immunoblot: O-GlcNAc levels in treated HEK 293 cells; format: cell-based, human; conditions: FIG. 4B
[3] = tested on: human lysosomal hexosaminidases HexA and HexB; conditions: background, literature; cited from earlier work
[4] = read-out: Ki values (in M) a) hexosaminidases

bacterial O-GlcNAcase (bOGA) (NagJ from Clostridium perfringens), sequence (Q8XL08 31-1001 limits assumed): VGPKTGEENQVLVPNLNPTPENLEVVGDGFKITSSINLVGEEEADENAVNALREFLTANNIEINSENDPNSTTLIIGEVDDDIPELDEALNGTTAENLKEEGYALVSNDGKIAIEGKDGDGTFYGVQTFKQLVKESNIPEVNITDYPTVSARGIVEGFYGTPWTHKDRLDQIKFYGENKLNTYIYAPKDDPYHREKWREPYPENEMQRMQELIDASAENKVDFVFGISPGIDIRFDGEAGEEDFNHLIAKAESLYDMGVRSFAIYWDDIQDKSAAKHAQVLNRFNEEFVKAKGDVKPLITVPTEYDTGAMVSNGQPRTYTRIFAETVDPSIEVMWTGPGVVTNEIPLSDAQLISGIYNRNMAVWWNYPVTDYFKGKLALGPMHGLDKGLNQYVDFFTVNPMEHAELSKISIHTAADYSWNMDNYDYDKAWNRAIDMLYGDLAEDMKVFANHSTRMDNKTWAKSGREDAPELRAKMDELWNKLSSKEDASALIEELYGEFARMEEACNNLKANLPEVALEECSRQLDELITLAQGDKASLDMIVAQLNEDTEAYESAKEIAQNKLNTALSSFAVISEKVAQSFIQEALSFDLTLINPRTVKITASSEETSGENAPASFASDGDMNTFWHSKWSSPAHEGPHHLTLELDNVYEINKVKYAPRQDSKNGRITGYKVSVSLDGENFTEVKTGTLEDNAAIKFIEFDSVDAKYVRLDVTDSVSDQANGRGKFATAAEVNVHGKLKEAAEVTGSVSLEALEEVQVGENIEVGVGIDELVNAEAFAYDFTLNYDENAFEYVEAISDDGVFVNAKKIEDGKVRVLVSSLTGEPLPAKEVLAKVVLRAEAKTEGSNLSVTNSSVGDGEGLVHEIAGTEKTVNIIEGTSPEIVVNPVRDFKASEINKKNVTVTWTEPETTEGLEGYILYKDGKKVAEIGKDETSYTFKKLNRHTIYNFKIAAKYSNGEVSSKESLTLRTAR
bOGA, sequence (Q8XL08 31-1001 limits assumed): as above

Compound | inhibition of OGA (in words) (OGA) | Ki [1] [nM] | Ratio a/b [1] | Ki [2, 4] [nM] | other results
CC(=O)NC1c2nc(C(=O)Nc3ccccc3)cn2C(CO)[C@@H](O)C1O (stereo partly drawn) [A] | only acts at the micromolar level |  |  |  | 
CC(=O)NC1c2nc(CCc3ccccc3)cn2C(CO)[C@@H](O)[C@@H]1O (stereo partly drawn) [Compound III] |  | 0.0078 | 256 | 2 | 
CC(C)C(=O)NC1c2nc(CCc3ccccc3)cn2C(CO)[C@@H](O)C1O (stereo partly drawn) [Compound II] |  | 0.0046 ± 0.0002 | 108000 |  | activity in inhibiting bOGA from removing O-GlcNAc from proteins (bOGA): more active than PUGNAc; inhibition of hOGA (in words) (human OGA (hOGA)): active against human OGA; IC50 (human OGA (hOGA); hOGA, FIG. 5): 8 nM; inhibition of hOGA (in words) (human OGA (hOGA); listed as GlcNacstain): more potent inhibitor than PUGNac; Ki ([2]; HexA/HexB mixture, read-out: Ki values (in M) a) hexosaminidases): 500 nM; Ki ([2]; placental hexosaminidases, 0-400 nM inhibitor, FIG. 3, read-out: Ki): 520 ± 70 nM; raising O-GlcNAc levels (HEK 293 cells): more efficient at raising O-GlcNAc levels than PUGNAc
CCC(=O)NC1c2nc(CCc3ccccc3)cn2C(CO)[C@@H](O)[C@@H]1O (stereo partly drawn) [Compound IV] |  | 0.011 | 440 | 4.8 | 
CC(=O)N[C@H]1/C(=N/OC(=O)Nc2ccccc2)O[C@H](CO)[C@@H](O)[C@@H]1O [PUGNAc, O-(2-acetamido-2-deoxy-D-glucopyrano-sylidene)amino-N-phenylcarbamate] | nanomolar inhibitor |  |  |  | inhibition of HexA and HexB (in words) [3]: potent inhibitor
COC(=O)Cc1cn2c(n1)C(NC(C)=O)[C@@H](O)[C@H](O)C2CO (stereo partly drawn) [V, reference compound] |  | 0.003 | 2500 | 7.5 | 
